# Measurements from PubChem BioAssay AID1918947 (Molecular Pharmacology Branch, DTP, NCI, 2023).
# Test system: A498 complex spheroid viability
# Test: Anticancer human tumor A498 cell line growth inhibition;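 also: spheroids exposed to agents for seven days before readout; 100% = DMSO vehicle-treated spheroids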
# Details: second compound 3.16 µM; first compound 0.000316 µM; stronger effect = lower value
# Summary of the method: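 Drug combinations with the LSD1 inhibitor iadademstat tested on tumor cells co-cultured as spheroids with endothelial cells and mesenchymal stem cells. Concentrations descended in half-log increments from clinical Cmax or 10 microM.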
row,SMILES,"viability, T/C"
1,Cn1ncnc1C1c2n[nH]c(=O)c3cc(F)cc(c23)NC1c1ccc(F)cc1 (stereo not drawn) + NC1CCC(NC2CC2c2ccccc2)CC1,83.8%
2,CC(C)CC(NC(=O)C(Cc1ccccc1)NC(=O)c1cnccn1)B(O)O (stereo not drawn) + NC1CC1c1ccc(-c2cccc(O)c2)cc1,95.6%

# Same assay, conditions: second compound 3.16 µM; first compound 0.001 µM; stronger effect = lower value
row,SMILES,"viability, T/C"
1,Cn1ncnc1C1c2n[nH]c(=O)c3cc(F)cc(c23)NC1c1ccc(F)cc1 (stereo not drawn) + NC1CCC(NC2CC2c2ccccc2)CC1,85.3%
2,CC(C)CC(NC(=O)C(Cc1ccccc1)NC(=O)c1cnccn1)B(O)O (stereo not drawn) + NC1CC1c1ccc(-c2cccc(O)c2)cc1,13.3%

# Same assay, conditions: second compound 3.16 µM; first compound 0.00316 µM; stronger effect = lower value
row,SMILES,"viability, T/C"
1,Cn1ncnc1C1c2n[nH]c(=O)c3cc(F)cc(c23)NC1c1ccc(F)cc1 (stereo not drawn) + NC1CCC(NC2CC2c2ccccc2)CC1,85.3%
2,CC(C)CC(NC(=O)C(Cc1ccccc1)NC(=O)c1cnccn1)B(O)O (stereo not drawn) + NC1CC1c1ccc(-c2cccc(O)c2)cc1,2.6%
3,O=C(C=Cn1cnc(-c2cc(C(F)(F)F)cc(C(F)(F)F)c2)n1)NNc1cnccn1 + NC1CCC(NC2CC2c2ccccc2)CC1,61.5%
4,COc1cc(Nc2ncc3c(n2)-c2ccc(Cl)cc2C(c2c(F)cccc2OC)=NC3)ccc1C(=O)O + NC1CCC(NC2CC2c2ccccc2)CC1,83.1%

# Same assay, conditions: second compound 3.16 µM; first compound 0.01 µM; stronger effect = lower value
row,SMILES,"viability, T/C"
1,Cn1ncnc1C1c2n[nH]c(=O)c3cc(F)cc(c23)NC1c1ccc(F)cc1 (stereo not drawn) + NC1CCC(NC2CC2c2ccccc2)CC1,78.5%
2,CC(C)CC(NC(=O)C(Cc1ccccc1)NC(=O)c1cnccn1)B(O)O (stereo not drawn) + NC1CC1c1ccc(-c2cccc(O)c2)cc1,1.41%
3,O=C(C=Cn1cnc(-c2cc(C(F)(F)F)cc(C(F)(F)F)c2)n1)NNc1cnccn1 + NC1CCC(NC2CC2c2ccccc2)CC1,42.6%
4,COc1cc(Nc2ncc3c(n2)-c2ccc(Cl)cc2C(c2c(F)cccc2OC)=NC3)ccc1C(=O)O + NC1CCC(NC2CC2c2ccccc2)CC1,70%

# Same assay, conditions: second compound 3.16 µM; first compound 0.0316 µM; stronger effect = lower value
row,SMILES,"viability, T/C"
1,Cn1ncnc1C1c2n[nH]c(=O)c3cc(F)cc(c23)NC1c1ccc(F)cc1 (stereo not drawn) + NC1CCC(NC2CC2c2ccccc2)CC1,79.6%
2,CC(C)CC(NC(=O)C(Cc1ccccc1)NC(=O)c1cnccn1)B(O)O (stereo not drawn) + NC1CC1c1ccc(-c2cccc(O)c2)cc1,0.42%
3,O=C(C=Cn1cnc(-c2cc(C(F)(F)F)cc(C(F)(F)F)c2)n1)NNc1cnccn1 + NC1CCC(NC2CC2c2ccccc2)CC1,34.1%
4,COc1cc(Nc2ncc3c(n2)-c2ccc(Cl)cc2C(c2c(F)cccc2OC)=NC3)ccc1C(=O)O + NC1CCC(NC2CC2c2ccccc2)CC1,73.1%

# Same assay, conditions: second compound 3.16 µM; first compound 0.1 µM; stronger effect = lower value
row,SMILES,"viability, T/C"
1,Cn1ncnc1C1c2n[nH]c(=O)c3cc(F)cc(c23)NC1c1ccc(F)cc1 (stereo not drawn) + NC1CCC(NC2CC2c2ccccc2)CC1,74.9%
2,CC(C)CC(NC(=O)C(Cc1ccccc1)NC(=O)c1cnccn1)B(O)O (stereo not drawn) + NC1CC1c1ccc(-c2cccc(O)c2)cc1,0.5%
3,O=C(C=Cn1cnc(-c2cc(C(F)(F)F)cc(C(F)(F)F)c2)n1)NNc1cnccn1 + NC1CCC(NC2CC2c2ccccc2)CC1,26.9%
4,COc1cc(Nc2ncc3c(n2)-c2ccc(Cl)cc2C(c2c(F)cccc2OC)=NC3)ccc1C(=O)O + NC1CCC(NC2CC2c2ccccc2)CC1,55.1%

# Same assay, conditions: second compound 3.16 µM; first compound 0.316 µM; stronger effect = lower value
row,SMILES,"viability, T/C"
1,O=C(C=Cn1cnc(-c2cc(C(F)(F)F)cc(C(F)(F)F)c2)n1)NNc1cnccn1 + NC1CCC(NC2CC2c2ccccc2)CC1,21.5%
2,COc1cc(Nc2ncc3c(n2)-c2ccc(Cl)cc2C(c2c(F)cccc2OC)=NC3)ccc1C(=O)O + NC1CCC(NC2CC2c2ccccc2)CC1,51%

# Same assay, conditions: second compound 3.16 µM; first compound 1 µM; stronger effect = lower value
row,SMILES,"viability, T/C"
1,O=C(C=Cn1cnc(-c2cc(C(F)(F)F)cc(C(F)(F)F)c2)n1)NNc1cnccn1 + NC1CCC(NC2CC2c2ccccc2)CC1,20.5%
2,COc1cc(Nc2ncc3c(n2)-c2ccc(Cl)cc2C(c2c(F)cccc2OC)=NC3)ccc1C(=O)O + NC1CCC(NC2CC2c2ccccc2)CC1,39.1%

# Same assay, conditions: second compound 10 µM; first compound 0.000316 µM; stronger effect = lower value
row,SMILES,"viability, T/C"
1,Cn1ncnc1C1c2n[nH]c(=O)c3cc(F)cc(c23)NC1c1ccc(F)cc1 (stereo not drawn) + NC1CCC(NC2CC2c2ccccc2)CC1,77.2%
2,CC(C)CC(NC(=O)C(Cc1ccccc1)NC(=O)c1cnccn1)B(O)O (stereo not drawn) + NC1CC1c1ccc(-c2cccc(O)c2)cc1,93.7%

# Same assay, conditions: second compound 10 µM; first compound 0.001 µM; stronger effect = lower value
row,SMILES,"viability, T/C"
1,Cn1ncnc1C1c2n[nH]c(=O)c3cc(F)cc(c23)NC1c1ccc(F)cc1 (stereo not drawn) + NC1CCC(NC2CC2c2ccccc2)CC1,76.8%
2,CC(C)CC(NC(=O)C(Cc1ccccc1)NC(=O)c1cnccn1)B(O)O (stereo not drawn) + NC1CC1c1ccc(-c2cccc(O)c2)cc1,15.9%

# Same assay, conditions: second compound 10 µM; first compound 0.00316 µM; stronger effect = lower value
row,SMILES,"viability, T/C"
1,Cn1ncnc1C1c2n[nH]c(=O)c3cc(F)cc(c23)NC1c1ccc(F)cc1 (stereo not drawn) + NC1CCC(NC2CC2c2ccccc2)CC1,78.2%
2,CC(C)CC(NC(=O)C(Cc1ccccc1)NC(=O)c1cnccn1)B(O)O (stereo not drawn) + NC1CC1c1ccc(-c2cccc(O)c2)cc1,2.17%
3,O=C(C=Cn1cnc(-c2cc(C(F)(F)F)cc(C(F)(F)F)c2)n1)NNc1cnccn1 + NC1CCC(NC2CC2c2ccccc2)CC1,53.4%
4,COc1cc(Nc2ncc3c(n2)-c2ccc(Cl)cc2C(c2c(F)cccc2OC)=NC3)ccc1C(=O)O + NC1CCC(NC2CC2c2ccccc2)CC1,73%

# Same assay, conditions: second compound 10 µM; first compound 0.01 µM; stronger effect = lower value
row,SMILES,"viability, T/C"
1,Cn1ncnc1C1c2n[nH]c(=O)c3cc(F)cc(c23)NC1c1ccc(F)cc1 (stereo not drawn) + NC1CCC(NC2CC2c2ccccc2)CC1,74.9%
2,CC(C)CC(NC(=O)C(Cc1ccccc1)NC(=O)c1cnccn1)B(O)O (stereo not drawn) + NC1CC1c1ccc(-c2cccc(O)c2)cc1,0.62%
3,O=C(C=Cn1cnc(-c2cc(C(F)(F)F)cc(C(F)(F)F)c2)n1)NNc1cnccn1 + NC1CCC(NC2CC2c2ccccc2)CC1,39.2%
4,COc1cc(Nc2ncc3c(n2)-c2ccc(Cl)cc2C(c2c(F)cccc2OC)=NC3)ccc1C(=O)O + NC1CCC(NC2CC2c2ccccc2)CC1,64.3%

# Same assay, conditions: second compound 10 µM; first compound 0.0316 µM; stronger effect = lower value
row,SMILES,"viability, T/C"
1,Cn1ncnc1C1c2n[nH]c(=O)c3cc(F)cc(c23)NC1c1ccc(F)cc1 (stereo not drawn) + NC1CCC(NC2CC2c2ccccc2)CC1,75.8%
2,CC(C)CC(NC(=O)C(Cc1ccccc1)NC(=O)c1cnccn1)B(O)O (stereo not drawn) + NC1CC1c1ccc(-c2cccc(O)c2)cc1,0.39%
3,O=C(C=Cn1cnc(-c2cc(C(F)(F)F)cc(C(F)(F)F)c2)n1)NNc1cnccn1 + NC1CCC(NC2CC2c2ccccc2)CC1,31.1%
4,COc1cc(Nc2ncc3c(n2)-c2ccc(Cl)cc2C(c2c(F)cccc2OC)=NC3)ccc1C(=O)O + NC1CCC(NC2CC2c2ccccc2)CC1,72.3%

# Same assay, conditions: second compound 10 µM; first compound 0.1 µM; stronger effect = lower value
row,SMILES,"viability, T/C"
1,Cn1ncnc1C1c2n[nH]c(=O)c3cc(F)cc(c23)NC1c1ccc(F)cc1 (stereo not drawn) + NC1CCC(NC2CC2c2ccccc2)CC1,65.3%
2,CC(C)CC(NC(=O)C(Cc1ccccc1)NC(=O)c1cnccn1)B(O)O (stereo not drawn) + NC1CC1c1ccc(-c2cccc(O)c2)cc1,0.43%
3,O=C(C=Cn1cnc(-c2cc(C(F)(F)F)cc(C(F)(F)F)c2)n1)NNc1cnccn1 + NC1CCC(NC2CC2c2ccccc2)CC1,26.4%
4,COc1cc(Nc2ncc3c(n2)-c2ccc(Cl)cc2C(c2c(F)cccc2OC)=NC3)ccc1C(=O)O + NC1CCC(NC2CC2c2ccccc2)CC1,61.5%

# Same assay, conditions: second compound 10 µM; first compound 0.316 µM; stronger effect = lower value
row,SMILES,"viability, T/C"
1,O=C(C=Cn1cnc(-c2cc(C(F)(F)F)cc(C(F)(F)F)c2)n1)NNc1cnccn1 + NC1CCC(NC2CC2c2ccccc2)CC1,22.9%
2,COc1cc(Nc2ncc3c(n2)-c2ccc(Cl)cc2C(c2c(F)cccc2OC)=NC3)ccc1C(=O)O + NC1CCC(NC2CC2c2ccccc2)CC1,56.8%

# Same assay, conditions: second compound 10 µM; first compound 1 µM; stronger effect = lower value
row,SMILES,"viability, T/C"
1,O=C(C=Cn1cnc(-c2cc(C(F)(F)F)cc(C(F)(F)F)c2)n1)NNc1cnccn1 + NC1CCC(NC2CC2c2ccccc2)CC1,16.4%
2,COc1cc(Nc2ncc3c(n2)-c2ccc(Cl)cc2C(c2c(F)cccc2OC)=NC3)ccc1C(=O)O + NC1CCC(NC2CC2c2ccccc2)CC1,42.1%
